Test results from US9062124B2, “GIP-based mixed agonists for treatment of metabolic disorders and obesity” (priority 2008, dated 2015).
Where a SMILES comes first, the peptide text is derived from it. Bridges are numbered along the chain shown (N, C = ends). Where no end group is shown, it is not given here. [ ]: non-standard residue; d: D form. The star is where a group is joined. PEG 40 kDa = PEG (40 kDa) covalently attached to Cys; Stearoyl = CCCCCCCCCCCCCCCCCC(=O)*; Palmitoyl = CCCCCCCCCCCCCCCC(=O)*; Myristoyl = CCCCCCCCCCCCCC(=O)*; Aib = CC(C)(N)C(=O)O

What was measured:
[1] = Blood glucose levels of mice after peptide injection
[2] = tested on: glucagon receptor, GLP-1 receptor or GIP receptor; assay: Agonist profile across receptors assigned from the cAMP reporter assay data; type: cell-based; details: assigned from the in vitro EC50 data of Tables 1-4
[3] = target: T1, GIP receptor (Homo sapiens, UniProt P48546); assay: cAMP synthesis functional assay (firefly luciferase reporter in HEK293 cells), GIP receptor; type: cell-based; details: for EC50: GIP Receptor EC50, cAMP luciferase reporter assay as in Example 16; for % activity at the GIP receptor: Table 5, relative to the native hormone; for GIP Receptor relative activity: relative to the standard (Std.) EC50 of the same run
T1 construct: expressed in transfected cells; host or cells: HEK293
T1 sequence (P48546 22-466): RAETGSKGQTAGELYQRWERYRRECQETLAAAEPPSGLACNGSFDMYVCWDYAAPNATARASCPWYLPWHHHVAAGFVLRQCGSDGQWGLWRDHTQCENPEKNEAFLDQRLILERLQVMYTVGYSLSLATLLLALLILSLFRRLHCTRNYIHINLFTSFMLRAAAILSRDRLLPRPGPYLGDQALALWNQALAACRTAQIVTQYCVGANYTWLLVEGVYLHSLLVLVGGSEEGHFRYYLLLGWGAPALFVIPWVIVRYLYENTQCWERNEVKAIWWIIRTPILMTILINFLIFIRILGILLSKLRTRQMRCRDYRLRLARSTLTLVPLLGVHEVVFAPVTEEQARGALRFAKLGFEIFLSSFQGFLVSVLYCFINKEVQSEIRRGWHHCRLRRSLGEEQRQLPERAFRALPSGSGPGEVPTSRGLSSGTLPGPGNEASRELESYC

[4] = target: T2, glucagon receptor (Homo sapiens, UniProt P47871); assay: cAMP synthesis functional assay (firefly luciferase reporter in HEK293 cells), glucagon receptor; type: cell-based; details: for EC50: Glucagon Receptor EC50, cAMP luciferase reporter assay as in Example 16; for % activity at the glucagon receptor: Table 5, relative to the native hormone; for Glucagon Receptor relative activity: relative to the standard (Std.) EC50 of the same run
T2 construct: expressed in transfected cells; host or cells: HEK293
T2 sequence (P47871 26-477): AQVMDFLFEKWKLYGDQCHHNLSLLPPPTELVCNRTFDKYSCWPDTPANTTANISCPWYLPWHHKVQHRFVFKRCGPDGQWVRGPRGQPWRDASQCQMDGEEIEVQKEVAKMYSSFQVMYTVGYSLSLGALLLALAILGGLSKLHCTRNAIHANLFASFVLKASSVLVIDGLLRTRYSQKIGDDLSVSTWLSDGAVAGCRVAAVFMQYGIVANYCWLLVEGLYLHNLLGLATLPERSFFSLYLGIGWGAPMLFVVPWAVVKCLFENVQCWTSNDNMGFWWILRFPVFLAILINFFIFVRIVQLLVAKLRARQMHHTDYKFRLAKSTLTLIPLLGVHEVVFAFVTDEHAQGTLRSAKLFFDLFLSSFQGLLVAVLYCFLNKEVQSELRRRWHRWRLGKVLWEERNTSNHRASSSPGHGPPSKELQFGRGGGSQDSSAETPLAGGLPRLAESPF

[5] = Body weight of mice after peptide injection; details: DIO mice; for body weight: Example 31, subcutaneous daily for 1 week, 10 nmol/kg
[6] = target: T3, GLP-1 receptor (Homo sapiens, UniProt P43220); assay: cAMP synthesis functional assay (firefly luciferase reporter in HEK293 cells), GLP-1 receptor; type: cell-based; details: for % activity at the GLP-1 receptor: Table 5, relative to the native hormone; for GLP-1 Receptor relative activity: relative to the standard (Std.) EC50 of the same run
T3 construct: expressed in transfected cells; host or cells: HEK293
T3 sequence (P43220 24-463, species assumed): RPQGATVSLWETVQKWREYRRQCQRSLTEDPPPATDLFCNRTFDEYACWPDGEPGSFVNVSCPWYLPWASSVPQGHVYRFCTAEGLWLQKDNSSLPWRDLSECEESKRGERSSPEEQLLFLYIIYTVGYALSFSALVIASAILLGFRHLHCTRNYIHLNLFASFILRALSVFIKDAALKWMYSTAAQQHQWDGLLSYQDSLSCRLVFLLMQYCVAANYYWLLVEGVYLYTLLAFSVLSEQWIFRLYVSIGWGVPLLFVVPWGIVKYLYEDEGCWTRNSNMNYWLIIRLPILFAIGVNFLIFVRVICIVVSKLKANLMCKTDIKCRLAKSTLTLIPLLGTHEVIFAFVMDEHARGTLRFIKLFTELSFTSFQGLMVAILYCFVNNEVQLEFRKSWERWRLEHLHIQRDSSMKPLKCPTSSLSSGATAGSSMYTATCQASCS

CCCCCCCCCCCCCCCCCC(=O)NCCCC[C@H](NC(=O)[C@H](CO)NC(=O)[C@@H]1CCCN1C(=O)[C@@H]1CCCN1C(=O)[C@@H]1CCCN1C(=O)[C@H](C)NC(=O)CNC(=O)[C@H](CO)NC(=O)[C@H](CO)NC(=O)[C@@H]1CCCN1C(=O)CNC(=O)CNC(=O)[C@H](C)NC(=O)[C@H](CC(C)C)NC(=O)[C@H](CC(C)C)NC(=O)[C@H](Cc1c[nH]c2ccccc12)NC(=O)[C@H](CC(N)=O)NC(=O)[C@@H](NC(=O)[C@H](Cc1ccccc1)NC(=O)[C@H](CCC(=O)O)NC(=O)C(C)(C)NC(=O)[C@H](C)NC(=O)[C@H](C)NC(=O)[C@H](CCC(N)=O)NC(=O)[C@H](CCCCN)NC(=O)[C@H](CC(=O)O)NC(=O)[C@H](CC(C)C)NC(=O)[C@H](Cc1ccc(O)cc1)NC(=O)[C@@H](NC(=O)[C@H](CO)NC(=O)[C@H](Cc1ccc(O)cc1)NC(=O)[C@H](CC(=O)O)NC(=O)[C@H](CO)NC(=O)[C@@H](NC(=O)[C@H](Cc1ccccc1)NC(=O)[C@@H](NC(=O)CNC(=O)[C@H](CCC(=O)O)NC(=O)C(C)(C)NC(=O)[C@@H](N)Cc1ccc(O)cc1)[C@@H](C)O)[C@@H](C)O)[C@@H](C)CC)C(C)C)C(N)=O [mt-262]
decrease in blood glucose levels ([1]; Example 29, mice, QD for 7 days, 25 nmol/kg): ~50% | receptor activity profile (glucagon / GLP-1 / GIP agonism) [2]: exhibited activity at the GIP, GLP-1, and glucagon receptors

CC[C@H](C)[C@H](NC(=O)[C@H](CO)NC(=O)[C@H](Cc1ccc(O)cc1)NC(=O)[C@H](CC(=O)O)NC(=O)[C@H](CO)NC(=O)[C@@H](NC(=O)[C@H](Cc1ccccc1)NC(=O)[C@@H](NC(=O)CNC(=O)[C@H](CCC(=O)O)NC(=O)C(C)(C)NC(=O)[C@@H](N)Cc1ccc(O)cc1)[C@@H](C)O)[C@@H](C)O)C(=O)N[C@@H](Cc1ccc(O)cc1)C(=O)N[C@@H](CC(C)C)C(=O)N[C@@H](CC(=O)O)C(=O)N[C@@H](CCCCN)C(=O)N[C@@H](CCC(N)=O)C(=O)N[C@@H](C)C(=O)N[C@@H](C)C(=O)NC(C)(C)C(=O)N[C@@H](CCC(=O)O)C(=O)N[C@@H](Cc1ccccc1)C(=O)N[C@H](C(=O)N[C@@H](CC(N)=O)C(=O)N[C@@H](Cc1c[nH]c2ccccc12)C(=O)N[C@@H](CC(C)C)C(=O)N[C@@H](CC(C)C)C(=O)N[C@@H](C)C(=O)NCC(=O)NCC(=O)N1CCC[C@H]1C(=O)N[C@@H](CO)C(=O)N[C@@H](CO)C(=O)NCC(=O)N[C@@H](C)C(=O)N1CCC[C@H]1C(=O)N1CCC[C@H]1C(=O)N1CCC[C@H]1C(=O)N[C@@H](CO)C(=O)N[C@@H](CCCCN)C(N)=O)C(C)C [mt-263]
decrease in blood glucose levels ([1]; Example 30, 10 nmol/kg dose, Day 7 compared to Day 0): ~-80 mg/dL | EC50 [3]: 3.1 pM

CCCCCCCCCCCCCC(=O)NCCCC[C@H](NC(=O)[C@H](CO)NC(=O)[C@@H]1CCCN1C(=O)[C@@H]1CCCN1C(=O)[C@@H]1CCCN1C(=O)[C@H](C)NC(=O)CNC(=O)[C@H](CO)NC(=O)[C@H](CO)NC(=O)[C@@H]1CCCN1C(=O)CNC(=O)CNC(=O)[C@H](C)NC(=O)[C@H](CC(C)C)NC(=O)[C@H](CC(C)C)NC(=O)[C@H](Cc1c[nH]c2ccccc12)NC(=O)[C@H](CC(N)=O)NC(=O)[C@@H](NC(=O)[C@H](Cc1ccccc1)NC(=O)[C@H](CCC(=O)O)NC(=O)C(C)(C)NC(=O)[C@H](C)NC(=O)[C@H](C)NC(=O)[C@H](CCC(N)=O)NC(=O)[C@H](CCCCN)NC(=O)[C@H](CC(=O)O)NC(=O)[C@H](CC(C)C)NC(=O)[C@H](Cc1ccc(O)cc1)NC(=O)[C@@H](NC(=O)[C@H](CO)NC(=O)[C@H](Cc1ccc(O)cc1)NC(=O)[C@H](CC(=O)O)NC(=O)[C@H](CO)NC(=O)[C@@H](NC(=O)[C@H](Cc1ccccc1)NC(=O)[C@@H](NC(=O)CNC(=O)[C@H](CCC(N)=O)NC(=O)C(C)(C)NC(=O)[C@@H](N)Cc1ccc(O)cc1)[C@@H](C)O)[C@@H](C)O)[C@@H](C)CC)C(C)C)C(N)=O [mt-277] (H-Y[Aib]QGTFTSDYSIYLDKQAA[Aib]EFVNWLLAGGPSSGAPPPSK(Myristoyl)-NH2; N-terminus assumed)
EC50 [4]: 21.5 pM | % activity at the glucagon receptor [4]: 235% | Glucagon Receptor relative activity [4]: 235.35% | body weight [5]: caused significant weight loss in the mice | % activity at the GLP-1 receptor [6]: 224% | GLP-1 Receptor relative activity [6]: 224.42% | % activity at the GIP receptor [3]: 446% | GIP Receptor relative activity [3]: 455.77% | receptor activity profile (glucagon / GLP-1 / GIP agonism) [2]: exhibited activity at the GIP, GLP-1, and glucagon receptors

CCCCCCCCCCCCCCCC(=O)NCCCC[C@H](NC(=O)[C@H](CO)NC(=O)[C@@H]1CCCN1C(=O)[C@@H]1CCCN1C(=O)[C@@H]1CCCN1C(=O)[C@H](C)NC(=O)CNC(=O)[C@H](CO)NC(=O)[C@H](CO)NC(=O)[C@@H]1CCCN1C(=O)CNC(=O)CNC(=O)[C@H](C)NC(=O)[C@H](CC(C)C)NC(=O)[C@H](CC(C)C)NC(=O)[C@H](Cc1c[nH]c2ccccc12)NC(=O)[C@H](CC(N)=O)NC(=O)[C@@H](NC(=O)[C@H](Cc1ccccc1)NC(=O)[C@H](CCC(=O)O)NC(=O)C(C)(C)NC(=O)[C@H](C)NC(=O)[C@H](C)NC(=O)[C@H](CCC(N)=O)NC(=O)[C@H](CCCCN)NC(=O)[C@H](CC(=O)O)NC(=O)[C@H](CC(C)C)NC(=O)[C@H](Cc1ccc(O)cc1)NC(=O)[C@@H](NC(=O)[C@H](CO)NC(=O)[C@H](Cc1ccc(O)cc1)NC(=O)[C@H](CC(=O)O)NC(=O)[C@H](CO)NC(=O)[C@@H](NC(=O)[C@H](Cc1ccccc1)NC(=O)[C@@H](NC(=O)CNC(=O)[C@H](CCC(N)=O)NC(=O)C(C)(C)NC(=O)[C@@H](N)Cc1ccc(O)cc1)[C@@H](C)O)[C@@H](C)O)[C@@H](C)CC)C(C)C)C(N)=O [mt-278] (H-Y[Aib]QGTFTSDYSIYLDKQAA[Aib]EFVNWLLAGGPSSGAPPPSK(Palmitoyl)-NH2; N-terminus assumed)
EC50 [4]: 8.6 pM | % activity at the glucagon receptor [4]: 588% | Glucagon Receptor relative activity [4]: 588.37% | body weight [5]: caused significant weight loss in the mice | % activity at the GLP-1 receptor [6]: 460% | GLP-1 Receptor relative activity [6]: 459.52% | EC50 [3]: 2.8 pM | % activity at the GIP receptor [3]: 846% | GIP Receptor relative activity [3]: 846.43% | receptor activity profile (glucagon / GLP-1 / GIP agonism) [2]: exhibited activity at the GIP, GLP-1, and glucagon receptors

CCCCCCCCCCCCCCCCCC(=O)NCCCC[C@H](NC(=O)[C@H](CO)NC(=O)[C@@H]1CCCN1C(=O)[C@@H]1CCCN1C(=O)[C@@H]1CCCN1C(=O)[C@H](C)NC(=O)CNC(=O)[C@H](CO)NC(=O)[C@H](CO)NC(=O)[C@@H]1CCCN1C(=O)CNC(=O)CNC(=O)[C@H](C)NC(=O)[C@H](CC(C)C)NC(=O)[C@H](CC(C)C)NC(=O)[C@H](Cc1c[nH]c2ccccc12)NC(=O)[C@H](CC(N)=O)NC(=O)[C@@H](NC(=O)[C@H](Cc1ccccc1)NC(=O)[C@H](CCC(=O)O)NC(=O)C(C)(C)NC(=O)[C@H](C)NC(=O)[C@H](C)NC(=O)[C@H](CCC(N)=O)NC(=O)[C@H](CCCCN)NC(=O)[C@H](CC(=O)O)NC(=O)[C@H](CC(C)C)NC(=O)[C@H](Cc1ccc(O)cc1)NC(=O)[C@@H](NC(=O)[C@H](CO)NC(=O)[C@H](Cc1ccc(O)cc1)NC(=O)[C@H](CC(=O)O)NC(=O)[C@H](CO)NC(=O)[C@@H](NC(=O)[C@H](Cc1ccccc1)NC(=O)[C@@H](NC(=O)CNC(=O)[C@H](CCC(N)=O)NC(=O)C(C)(C)NC(=O)[C@@H](N)Cc1ccc(O)cc1)[C@@H](C)O)[C@@H](C)O)[C@@H](C)CC)C(C)C)C(N)=O [mt-279] (H-Y[Aib]QGTFTSDYSIYLDKQAA[Aib]EFVNWLLAGGPSSGAPPPSK(Stearoyl)-NH2; N-terminus assumed)
EC50 [4]: 6.9 pM | % activity at the glucagon receptor [4]: 733% | Glucagon Receptor relative activity [4]: 733.33% | body weight [5]: caused significant weight loss in the mice | % activity at the GLP-1 receptor [6]: 420% | GLP-1 Receptor relative activity [6]: 419.57% | EC50 [3]: 4.5 pM | % activity at the GIP receptor [3]: 527% | GIP Receptor relative activity [3]: 526.67% | receptor activity profile (glucagon / GLP-1 / GIP agonism) [2]: exhibited activity at the GIP, GLP-1, and glucagon receptors

mt-170: lactam-containing GLP-1/GIP/glucagon triagonist peptide, C-terminal amide (Y[Aib]QGTFTSDYSIYLDEQAAKEFVNWLLAGGPSSGAPPPSC(PEG 40 kDa)-NH2; lactam 16-20)
reduction of body weight ([5]; Example 22, subcutaneous QW, 70 or 210 nmol/kg/week): a little more effective at reducing body weight in the mice as Chimera 2 AIB2, but not as effective as Chimera 2 AIB2 lactam | receptor activity profile (glucagon / GLP-1 / GIP agonism) [2]: exemplary GLP-1/GIP/glucagon triagonist peptides
